Measured values: PubChem BioAssay AID1963875 (Molecular Pharmacology Branch, DTP, NCI, 2024)

Tested on: KRAS-mutant PDC complex spheroid viability
Assay: Anticancer human tumor 186277-243-T-J2-PDC patient-derived colon adenocarcinoma cell line growth inhibition [KRAS2]
Details: for IC50: curve of first compound; for viability, T/C: stronger effect = lower value
In short: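 Combination screen of spheroid viability in tumor-cell co-cultures with endothelial (HUVEC) and mesenchymal stem cell stroma. Each agent was tested in half-log dilutions, topping at clinical Cmax or at 10 microM without a known Cmax.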

[1] = second compound 0.1 µM, first compound 0.0316 µM
[2] = second compound 0.1 µM, first compound 0.1 µM
[3] = second compound 0.1 µM, first compound 0.316 µM
[4] = second compound 0.1 µM, first compound 1 µM
[5] = second compound 0.1 µM, first compound 3.16 µM
[6] = second compound 0.316 µM, first compound 0.0316 µM
[7] = second compound 0.316 µM, first compound 0.1 µM
[8] = second compound 0.316 µM, first compound 0.316 µM
[9] = second compound 0.316 µM, first compound 1 µM
[10] = second compound 0.316 µM, first compound 3.16 µM
[11] = second compound 1 µM, first compound 0.0316 µM
[12] = second compound 1 µM, first compound 0.1 µM
[13] = second compound 1 µM, first compound 0.316 µM
[14] = second compound 1 µM, first compound 1 µM
[15] = second compound 1 µM, first compound 3.16 µM
[16] = second compound 3.16 µM, first compound 0.0316 µM
[17] = second compound 3.16 µM, first compound 0.1 µM
[18] = second compound 3.16 µM, first compound 0.316 µM
[19] = second compound 3.16 µM, first compound 1 µM
[20] = second compound 3.16 µM, first compound 3.16 µM
[21] = second compound 10 µM, first compound 0.0316 µM
[22] = second compound 10 µM, first compound 0.1 µM
[23] = second compound 10 µM, first compound 0.316 µM
[24] = second compound 10 µM, first compound 1 µM
[25] = second compound 10 µM, first compound 3.16 µM
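For viability, T/C in this document: viability read after seven days of compound exposure; 100% = DMSO vehicle-treated spheroids so lower means less viable.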

Compound	IC50 (second compound 0.1 µM) [nM]	IC50 (second compound 0.316 µM) [nM]	IC50 (second compound 1 µM) [nM]	IC50 (second compound 3.16 µM) [nM]	IC50 (second compound 10 µM) [nM]	viability, T/C [1] [%]	viability, T/C [2] [%]	viability, T/C [3] [%]	viability, T/C [4] [%]	viability, T/C [5] [%]	viability, T/C [6] [%]	viability, T/C [7] [%]	viability, T/C [8] [%]	viability, T/C [9] [%]	viability, T/C [10] [%]	viability, T/C [11] [%]	viability, T/C [12] [%]	viability, T/C [13] [%]	viability, T/C [14] [%]	viability, T/C [15] [%]	further results
CC1COCCN1c1cc(-c2ccnn2C)c2ccnc(-c3ccn[nH]3)c2n1 (centres undefined) + C=CC(=O)N1CCN(c2nc(=O)n(-c3c(C)ccnc3C(C)C)c3nc(-c4c(O)cccc4F)c(F)cc23)C(C)C1	22	22.6	17.9	17	< 10	32.6	5.89	4.33	3.67	4.31	31.5	6.35	4.65	3.68	4.54	24.2	7.17	5.13	4.4	5.82	viability, T/C (second compound 0.1 µM, first compound 0.01 µM): 87.5%; viability, T/C (second compound 0.316 µM, first compound 0.01 µM): 94.6%; viability, T/C (second compound 3.16 µM, first compound 0.01 µM): 79.5%; viability, T/C [16]: 15.3%; viability, T/C [17]: 7.75%; viability, T/C [18]: 5.93%; viability, T/C [19]: 6.25%; viability, T/C [20]: 8.7%; viability, T/C (second compound 10 µM, first compound 0.01 µM): 19.3%; viability, T/C [21]: 11.3%; viability, T/C [22]: 9.23%; viability, T/C [23]: 8.93%; viability, T/C [24]: 11.2%; viability, T/C [25]: 14.7%
CCNC(=O)CC1N=C(c2ccc(Cl)cc2)c2cc(OC)ccc2-n2c(C)nnc21 (centres undefined) + C=CC(=O)N1CCN(c2nc(=O)n(-c3c(C)ccnc3C(C)C)c3nc(-c4c(O)cccc4F)c(F)cc23)C(C)C1	> 10000	> 10000	9860	2730	306	108	117	121	162	132	103	101	125	155	121	95.2	103	126	138	102	viability, T/C (second compound 0.1 µM, first compound 10 µM): 101%; viability, T/C (second compound 0.316 µM, first compound 10 µM): 87.9%; viability, T/C (second compound 1 µM, first compound 10 µM): 49.4%; viability, T/C [16]: 88.9%; viability, T/C [17]: 87.1%; viability, T/C [18]: 107%; viability, T/C [19]: 101%; viability, T/C [20]: 43.3%; viability, T/C (second compound 3.16 µM, first compound 10 µM): 14.7%; viability, T/C [21]: 75.8%; viability, T/C [22]: 87.1%; viability, T/C [23]: 46.7%; viability, T/C [24]: 18.4%; viability, T/C [25]: 9.07%; viability, T/C (second compound 10 µM, first compound 10 µM): 4.83%
